From the NIST ThermoML archive (doi:10.1016/j.tca.2010.11.025)
± gives the expanded uncertainty stated by the source.

Key:
[1] = 298.15 K; 101.33 kPa; Liquid; Pycnometric method
[2] = refractive index (Na D-line) (dimensionless); details: 298.15 K; 101.33 kPa; Liquid; Standard Abbe refractometry

Work on CN1CCCN(C)C1=O [1,3-dimethyl-3,4,5,6-tetrahydro-2(1H)-pyrimidinone] yielded a mass density [1] of 1060.06 ± 0.96 kg/m3 and a refractive index [2] of 1.4878 ± 0.0007.
